Data on 3 substances can be found in patent publication US9006191B2, “Silencing of polo-like kinase expression using interfering RNA” (Protiva Biotherapeutics, Inc., priority 2007, dated 2015).

“Also recorded” adds a separate entry of the source.

One data set has as its system HT29 cells. Nature of the data set: HT29 cell viability assay (CellTiter-Blue). It counts as cell-based, human. The note with it: for anti-proliferative activity in screen of PLK-1 siRNA panel: HT29 cells, 1, 5, 25 nM, 72 h; for cell viability / killing of human tumor cells: HT29 cells, SNALP-formulated siRNA at a range of siRNA concentrations, viability at 72 h relative to PBS. On the procedure:
(§1) Various PLK-1 siRNAs were formulated as SNALP (“2:40” SNALP formulation: 2% PEG-cDMA; 40% DLinDMA; 10% DSPC; and 48% cholesterol) and evaluated for their inhibitory effects on cell growth in vitro. HT29 (human colon adenocarcinoma) or Neuro2A (mouse neuroblastoma) cells were treated with various PLK-1 SNALP at a range of siRNA concentrations and their effect on cell viability was evaluated. Viability of cell cultures is expressed as % viability relative to PBS treated controls.
Additional PLK-1 siRNA molecules were formulated as SNALP (“2:40” SNALP formulation: 2% PEG-cDMA; 40% DLinDMA; 10% DSPC; and 48% cholesterol) and evaluated for their inhibitory effects on cell growth in vitro. HT29 or Neuro2A cells were plated in triplicate at 5000 cells/well and 2500 cells/well, respectively. PLK-1 SNALP dosages were as follows: 25 nM; 5 nM; and 1 nM. Cell viability analysis was performed at 72 hours following transfection. SNALP containing a non-targeting (GFP) siRNA were used as a negative control. […]
PLK-1 siRNA molecules containing 2′-O-methyl (2′OMe) nucleotides at selective positions within the double-stranded region of the siRNA duplex were formulated as SNALP (“2:40” SNALP formulation: 2% PEG-cDMA; 40% DLinDMA; 10% DSPC; and 48% cholesterol) and evaluated for their inhibitory effects on cell growth in vitro. HT29 cells were plated in triplicate at 5000 cells/well. Cell viability analysis was performed at 72 hours following transfection with a range of PLK-1 SNALP dosages. SNALP containing a non-targeting (GFP) siRNA were used as a negative control.
Cell viability assays. […] Cell viability analysis was performed at 72 hours following transfection with a range of PLK-1 SNALP dosages.
A general note: Resazurin is reduced to fluorescent resorufin, in cell work by metabolically active cells.

In data set [1] the test system is Flt3-ligand derived murine dendritic cells. Nature of the data set: Cytokine induction in murine Flt3L dendritic cell cultures (ELISA). It is filed as cell-based, mouse. The note with it: murine Flt3L DC, 5 μg/ml siRNA in SNALP, 24 h. On the procedure: Cytokine Induction Assays: Flt3-ligand derived murine dendritic cells (Flt3L DC) were generated as described by Gilliet et al. (J. Exp. Med., 195:953-958) using 100 ng/ml murine Flt3-ligand (PeproTech Inc.; Rocky Hill, N.J.) supplemented media. Femurs and tibiae of female Balb/C mice were isolated and rinsed in sterile PBS. The ends of bones were cut and marrow harvested in complete media (RPMI 1640, 10% heat inactivated FBS, 1% penicillin/streptomycin, 2 mM L-glutamine, 1 mM sodium pyruvate, 25 mM HEPES, 50 μM 2-mercaptoethanol). Bone marrow cells were passed through a 70 μm strainer, centrifuged at 1000 rpm for 7 minutes, and resuspended in complete media supplemented with 100 ng/ml murine Flt3L to 2×10^6 cells/ml. 2 mls of cells were seeded in 6-well plates and 1 ml fresh complete media added every two or three days. On day 9 of culture, non-adherent cells were washed in complete media and plated into 96-well plates at concentrations ranging from 0.5 to 2.5×10^5 cells/well. 2′OMe-modified and unmodified (0/0) PLK-1 SNALP were diluted in PBS and added to Flt3L DC cultures at 5 μg/ml siRNA. Cells were incubated for 24 hours at 37° C. before supernatants were assayed for cytokines by ELISA.
Cytokine ELISA: Interferon-α and IL-6 in culture supernatants were quantified using sandwich ELISA kits according to manufacturer's instructions. These were mouse IFN-α (PBL Biomedical; Piscataway, N.J.) and mouse IL-6 (eBioscience; San Diego, Calif.).
In vitro immune stimulation assays. Mouse Flt3L dendritic cell cultures were generated as described previously (65). In brief, bone marrow from Balb/C mice was harvested in complete media (RPMI 1640, 10% FBS, 1% penicillin/streptomycin, 2 mM L-glutamine, 1 mM sodium pyruvate, 25 mM HEPES, 50 uM 2-mercaptoethanol), passed through a 70 micron strainer and resuspended to 2×10^6 cells/mL in complete media supplemented with 100 ng/mL murine Flt3L (Peprotech). Cells were seeded in 6-well plates and 1 mL fresh Flt3L media added every three days. On day 9 of culture, non-adherent cells were plated into 96 well plates at a concentration 2×10^5 cells/well. Formulated siRNA were diluted in PBS and added to the cells for 24 h before supernatants were assayed for cytokines by ELISA.
Cytokine ELISA. All cytokines were quantified using sandwich ELISA kits.

A further data set deals with Neuro2A cells. Nature of the data set: Neuro2A cell viability assay (CellTiter-Blue). It is filed as cell-based. The note with it: mouse Neuro2A cells, SNALP-formulated siRNA, viability at 72 h relative to PBS. How it is done:
as §1
Additional PLK-1 siRNA molecules were formulated as SNALP (“2:40” SNALP formulation: 2% PEG-cDMA; 40% DLinDMA; 10% DSPC; and 48% cholesterol) and evaluated for their inhibitory effects on cell growth in vitro. HT29 or Neuro2A cells were plated in triplicate at 5000 cells/well and 2500 cells/well, respectively. PLK-1 SNALP dosages were as follows: 25 nM; 5 nM; and 1 nM. Cell viability analysis was performed at 72 hours following transfection. SNALP containing a non-targeting (GFP) siRNA were used as a negative control.
Additional PLK-1 siRNA molecules were formulated as SNALP (“2:40” SNALP formulation: 2% PEG-cDMA; 40% DLinDMA; 10% DSPC; and 48% cholesterol) and evaluated for their inhibitory effects on cell growth in vitro. HT29 or Neuro2A cells were plated in triplicate at 5000 cells/well and 2500 cells/well, respectively. PLK-1 SNALP dosages were as follows: 30 nM; 10 nM; and 3.3 nM. Cell viability analysis was performed at 72 hours following transfection. SNALP containing a non-targeting (GFP) siRNA were used as a negative control.

On to “PLK1424: siRNA to human PLK-1, SEQ ID NO:1/2 (UU overhang form 211/212) (chain 1 AGAUCACCCUCCUUAAAUA; chain 2 UAUUUAAGGAGGGUGAUCU; further chemistry not given here)”, for which, in the data set on HT29 cells, the “anti-proliferative activity in screen of PLK-1 siRNA panel” value is given as “most potent human siRNA” and the “cell viability / killing of human tumor cells” value is given as “highly potent at killing human tumor cells; also recorded: most potent effects; also recorded: inhibiting cell growth; also recorded: dose-dependent decrease in cell viability”. For the same substance, the “cytokine (IL-6, IFN-α) response” value in data set [1] is “high levels of both IFNα and IL-6”. Moreover, in the data set with Neuro2A cells, the “cell viability / inhibition of cell growth” value is on record as “inactivity in the mouse cell line”.

As for “PLK1424-2/A: 2′OMe-modified PLK1424 duplex, SEQ ID NO:214/215 (same SEQ IDs as PLK1424 1/3 of Table 11) (chain 1 AGANCACCCNCCUNAAANAUU; chain 2 UAUUUAANGAGGGUGANCUUU; siRNA; 2'-O-methyl modifications at selected positions, key for n not given here)”, the “cytokine (IL-6, IFN-α) response” value in data set [1] is “completely abrogated”.

For the substance “PLK773: siRNA to human PLK-1, SEQ ID NO:3/4 (UU overhang form 218/219) (chain 1 AGACCUACCUCCGGAUCAA; chain 2 UUGAUCCGGAGGUAGGUCU; RNA, backbone not given here)”, in the data set with HT29 cells, the “anti-proliferative activity in screen of PLK-1 siRNA panel” value is “most potent mouse, rat, and human cross-reactive siRNA”; the “cell viability / killing of human tumor cells” value is given as “effective at killing human tumor cells; also recorded: inhibiting cell growth; also recorded: dose-dependent decrease in cell viability”. Further, in data set [1], the “cytokine (IL-6, IFN-α) response” value was “high levels of both IFNα and IL-6”. The “cell viability / inhibition of cell growth” value with Neuro2A cells is recorded as “most potent human/mouse cross-reactive siRNA molecules”.
